# In patent US20060069132A1, “Azolecarboxamide herbicides” (priority 2004, published 2006):
# Tests used:
# barnyardgrass [1] = assay: Test B pre-/postemergence herbicide test; type: in vivo, Echinochloa crus-galli; details: for Barnyardgrass plant response rating: postemergence, scale 0 (no effect) to 100 (complete control)
# How it was run: (§1)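 Greenhouse pot assay with simultaneous preemergence (treated seed) and postemergence (2–18 cm seedlings) applications of surfactant-containing, non-phytotoxic solvent formulations. Response scored visually 13–15 days later on a 0–100 scale, 100 meaning complete control.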
# Surinam grass = assay: Test B pre-/postemergence herbicide test; type: in vivo, Urochloa decumbens; details: for Surinam Grass plant response rating: postemergence, scale 0 (no effect) to 100 (complete control)
# How it was run: (§2)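 Pre: seeds sown, then sprayed. Post: 1–4-leaf plants (2–18 cm) sprayed at the same time. Paddy: flooded, treated at 2-leaf stage. Formulation: non-phytotoxic solvent with surfactant. Greenhouse 13–15 days; visual 0–100 score relative to controls.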
# cocklebur = assay: Test B pre-/postemergence herbicide test; type: in vivo, Xanthium strumarium; details: for Cocklebur plant response rating: postemergence, scale 0 (no effect) to 100 (complete control)
# How it was run: as §1
# corn = assay: Test B pre-/postemergence herbicide test; type: in vivo, Zea mays; details: for Corn plant response rating: postemergence, scale 0 (no effect) to 100 (complete control)
# How it was run: as §2
# large crabgrass = assay: Test B pre-/postemergence herbicide test; type: in vivo, Digitaria sanguinalis; details: for Crabgrass, Large plant response rating: postemergence, scale 0 (no effect) to 100 (complete control)
# How it was run: as §2
# giant foxtail = assay: Test B pre-/postemergence herbicide test; type: in vivo, Setaria faberi; details: for Foxtail, Giant plant response rating: postemergence, scale 0 (no effect) to 100 (complete control)
# How it was run: as §2
# lambsquarters = assay: Test B pre-/postemergence herbicide test; type: in vivo, Chenopodium album; details: for Lambsquarters plant response rating: postemergence, scale 0 (no effect) to 100 (complete control)
# How it was run: as §2
# morningglory = assay: Test B pre-/postemergence herbicide test; type: in vivo, Ipomoea coccinea; details: for Morningglory plant response rating: postemergence, scale 0 (no effect) to 100 (complete control)
# How it was run: as §1
# pigweed = assay: Test B pre-/postemergence herbicide test; type: in vivo, Amaranthus retroflexus; details: for Pigweed plant response rating: postemergence, scale 0 (no effect) to 100 (complete control)
# How it was run: as §2
# rice [2] = assay: Test B pre-/postemergence herbicide test; type: in vivo, Oryza sativa; details: preemergence
# How it was run: as §2
# velvetleaf = assay: Test B pre-/postemergence herbicide test; type: in vivo, Abutilon theophrasti; details: for Velvetleaf plant response rating: postemergence, scale 0 (no effect) to 100 (complete control)
# How it was run: as §2
# blackgrass = assay: Test B postemergence herbicide test; type: in vivo, Alopecurus myosuroides; details: postemergence, visual rating, scale 0 (no effect) to 100 (complete control)
# How it was run: (§3)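 Greenhouse test; postemergence application to plants at 1–4 leaves (2–18 cm); paddy species at 2 leaves; evaluated visually vs controls at 13–15 days; scale 0–100 (100 = complete control).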
# wheat = assay: Test B postemergence herbicide test; type: in vivo, Triticum aestivum; set-up: key to Wheat plant response rating: 0 = no effect, 100 = complete control; details: postemergence, visual rating, scale 0 (no effect) to 100 (complete control)
# How it was run: (§4)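 Scale 0–100: zero equals no visible effect, 100 complete control, judged by eye relative to controls. Timing: 13 to 15 days in greenhouse post-treatment. Growth stage at spraying: two leaves (paddy) or one to four leaves, 2–18 cm (postemergence).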
# wild oat = assay: Test B postemergence herbicide test; type: in vivo, Avena fatua; details: postemergence, visual rating, scale 0 (no effect) to 100 (complete control)
# How it was run: as §4
# rice [3] = assay: Test B flooded paddy test; type: in vivo, Oryza sativa; details: 1000 g ai/ha, visual rating, scale 0 to 100 (0 no effect, 100 complete control), 13 to 15 days
# How it was run: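 Plants grow to 1- to 4-leaf stage (2–18 cm) for postemergence spraying, or to 2-leaf stage for the paddy test. Formulated compound is applied. Greenhouse holding lasts 13–15 days. Response is scored visually relative to controls, 0 no effect to 100 complete control; a dash means no result.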
# [4] = tested on: small flower umbrella sedge; assay: Test B flooded paddy test; type: in vivo, Cyperus difformis; details: 1000 g ai/ha, visual rating, scale 0 to 100 (0 no effect, 100 complete control), 13 to 15 days
# How it was run: as §3
# ducksalad = assay: Test B flooded paddy test; type: in vivo, Heteranthera limosa; details: 1000 g ai/ha, visual rating, scale 0 to 100 (0 no effect, 100 complete control), 13 to 15 days
# How it was run: as §3
# barnyardgrass [5] = assay: Test B flooded paddy test; type: in vivo, Echinochloa crus-galli; details: 1000 g ai/ha, visual rating, scale 0 to 100 (0 no effect, 100 complete control), 13 to 15 days
# How it was run: as §3
# [6] = 125 g ai/ha, 0 = no effect, 100 = complete control, preemergence
# [7] = 500 g ai/ha, visual rating, 0 = no effect, 100 = complete control, preemergence
# [8] = 500 g ai/ha, visual rating 0-100, 0 no effect, 100 complete control, preemergence
# [9] = preemergence, 125 g ai/ha, 0 to 100 scale, 0 is no effect, 100 is complete control
compound,measurement,setting,value
CCN(CC)C(=O)c1cccc(NC(=O)c2nn(C(C)(C)C)cc2Cl)c1 [Compound 218],Barnyardgrass plant response rating (0 to 100 scale),barnyardgrass [1]; [6],0
same,"Plant response rating, Barnyardgrass",barnyardgrass [1]; [7],0
same,Barnyardgrass plant response rating,"barnyardgrass [1]; 125 g ai/ha, visual rating",0
same,Barnyardgrass plant response rating,"barnyardgrass [1]; 500 g ai/ha, visual rating",0
same,Surinam Grass plant response rating (0 to 100 scale),Surinam grass; [6],0
same,"Plant response rating, Surinam Grass",Surinam grass; [7],0
same,Surinam Grass plant response rating,"Surinam grass; 125 g ai/ha, visual rating",0
same,Surinam Grass plant response rating,"Surinam grass; 500 g ai/ha, visual rating",10
same,Cocklebur plant response rating (0 to 100 scale),cocklebur; [6],0
same,"Plant response rating, Cocklebur",cocklebur; [7],0
same,Cocklebur plant response rating,"cocklebur; 125 g ai/ha, visual rating",0
same,Cocklebur plant response rating,"cocklebur; 500 g ai/ha, visual rating",0
same,Corn plant response rating (0 to 100 scale),corn; [6],0
same,"Plant response rating, Corn",corn; [7],0
same,Corn plant response rating,"corn; 125 g ai/ha, visual rating",0
same,Corn plant response rating,"corn; 500 g ai/ha, visual rating",10
same,"Crabgrass, Large plant response rating (0 to 100 scale)",large crabgrass; [6],0
same,"Plant response rating, Crabgrass, Large",large crabgrass; [7],20
same,"Crabgrass, Large plant response rating","large crabgrass; 125 g ai/ha, visual rating",0
same,"Crabgrass, Large plant response rating","large crabgrass; 500 g ai/ha, visual rating",10
same,"Foxtail, Giant plant response rating (0 to 100 scale)",giant foxtail; [6],0
same,"Plant response rating, Foxtail, Giant",giant foxtail; [7],0
same,"Foxtail, Giant plant response rating","giant foxtail; 125 g ai/ha, visual rating",0
same,"Foxtail, Giant plant response rating","giant foxtail; 500 g ai/ha, visual rating",0
same,Lambsquarters plant response rating (0 to 100 scale),lambsquarters; [6],0
same,"Plant response rating, Lambsquarters",lambsquarters; [7],0
same,Lambsquarters plant response rating,"lambsquarters; 125 g ai/ha, visual rating",0
same,Lambsquarters plant response rating,"lambsquarters; 500 g ai/ha, visual rating",10
same,Morningglory plant response rating (0 to 100 scale),morningglory; [6],0
same,"Plant response rating, Morningglory",morningglory; [7],0
same,Morningglory plant response rating,"morningglory; 125 g ai/ha, visual rating",0
same,Morningglory plant response rating,"morningglory; 500 g ai/ha, visual rating",10
same,Pigweed plant response rating (0 to 100 scale),pigweed; [6],0
same,"Plant response rating, Pigweed",pigweed; [7],0
same,Pigweed plant response rating,"pigweed; 125 g ai/ha, visual rating",0
same,Pigweed plant response rating,"pigweed; 500 g ai/ha, visual rating",20
same,Rice plant response rating (0 to 100 scale),"rice [2]; 125 g ai/ha, 0 = no effect, 100 = complete control",0
same,"Plant response rating, Rice","rice [2]; 500 g ai/ha, visual rating, 0 = no effect, 100 = complete control",0
same,Velvetleaf plant response rating (0 to 100 scale),velvetleaf; [6],0
same,"Plant response rating, Velvetleaf",velvetleaf; [7],0
same,Velvetleaf plant response rating,"velvetleaf; 125 g ai/ha, visual rating",0
same,Velvetleaf plant response rating,"velvetleaf; 500 g ai/ha, visual rating",0
same,Blackgrass plant response rating,blackgrass; 125 g ai/ha,0
same,Blackgrass plant response rating,blackgrass; 500 g ai/ha,0
same,Wheat plant response rating,wheat; 125 g ai/ha,0
same,Wheat plant response rating,wheat; 500 g ai/ha,0
same,"Oat, Wild plant response rating",wild oat; 125 g ai/ha,0
same,"Oat, Wild plant response rating",wild oat; 500 g ai/ha,0
same,Rice plant response rating,rice [3],0
same,"Sedge, Umbrella plant response rating",[4],20
same,Ducksalad plant response rating,ducksalad,0
same,Barnyardgrass plant response rating,barnyardgrass [5],0
CCOC(=O)c1ccnc(NC(=O)c2cc(C(C)(C)C)nn2CC)c1 [Compound 157],"Plant response rating, Barnyardgrass",barnyardgrass [1]; [8],0
same,Barnyardgrass plant response rating,"barnyardgrass [1]; 125 g ai/ha, visual rating",0
same,Barnyardgrass plant response rating,"barnyardgrass [1]; 500 g ai/ha, visual rating",20
same,"Plant response rating, Barnyardgrass",barnyardgrass [1]; [9],0
same,"Plant response rating, Surinam Grass",Surinam grass; [8],0
same,Surinam Grass plant response rating,"Surinam grass; 125 g ai/ha, visual rating",20
same,Surinam Grass plant response rating,"Surinam grass; 500 g ai/ha, visual rating",20
same,"Plant response rating, Surinam Grass",Surinam grass; [9],0
same,"Plant response rating, Cocklebur",cocklebur; [8],20
same,Cocklebur plant response rating,"cocklebur; 125 g ai/ha, visual rating",10
same,Cocklebur plant response rating,"cocklebur; 500 g ai/ha, visual rating",90
same,"Plant response rating, Cocklebur",cocklebur; [9],0
same,"Plant response rating, Corn",corn; [8],0
same,Corn plant response rating,"corn; 125 g ai/ha, visual rating",0
same,Corn plant response rating,"corn; 500 g ai/ha, visual rating",0
same,"Plant response rating, Corn",corn; [9],0
same,"Plant response rating, Crabgrass, Large",large crabgrass; [8],20
same,"Crabgrass, Large plant response rating","large crabgrass; 125 g ai/ha, visual rating",0
same,"Crabgrass, Large plant response rating","large crabgrass; 500 g ai/ha, visual rating",20
same,"Plant response rating, Crabgrass, Large",large crabgrass; [9],0
same,"Plant response rating, Foxtail, Giant",giant foxtail; [8],0
same,"Foxtail, Giant plant response rating","giant foxtail; 125 g ai/ha, visual rating",30
same,"Foxtail, Giant plant response rating","giant foxtail; 500 g ai/ha, visual rating",40
same,"Plant response rating, Foxtail, Giant",giant foxtail; [9],0
same,"Plant response rating, Lambsquarters",lambsquarters; [8],30
same,Lambsquarters plant response rating,"lambsquarters; 125 g ai/ha, visual rating",20
same,Lambsquarters plant response rating,"lambsquarters; 500 g ai/ha, visual rating",70
same,"Plant response rating, Lambsquarters",lambsquarters; [9],0
same,"Plant response rating, Morningglory",morningglory; [8],40
same,Morningglory plant response rating,"morningglory; 125 g ai/ha, visual rating",0
same,Morningglory plant response rating,"morningglory; 500 g ai/ha, visual rating",30
same,"Plant response rating, Morningglory",morningglory; [9],0
same,"Plant response rating, Pigweed",pigweed; [8],40
same,Pigweed plant response rating,"pigweed; 125 g ai/ha, visual rating",40
same,Pigweed plant response rating,"pigweed; 500 g ai/ha, visual rating",80
same,"Plant response rating, Pigweed",pigweed; [9],0
same,"Plant response rating, Rice","rice [2]; 500 g ai/ha, visual rating 0-100, 0 no effect, 100 complete control",0
same,"Plant response rating, Rice","rice [2]; 125 g ai/ha, 0 to 100 scale, 0 is no effect, 100 is complete control",0
same,"Plant response rating, Velvetleaf",velvetleaf; [8],0
same,Velvetleaf plant response rating,"velvetleaf; 125 g ai/ha, visual rating",50
same,Velvetleaf plant response rating,"velvetleaf; 500 g ai/ha, visual rating",80
same,"Plant response rating, Velvetleaf",velvetleaf; [9],0
same,Blackgrass plant response rating,blackgrass; 125 g ai/ha,10
same,Blackgrass plant response rating,blackgrass; 500 g ai/ha,20
same,Wheat plant response rating,wheat; 500 g ai/ha,20
same,"Oat, Wild plant response rating",wild oat; 125 g ai/ha,10
same,"Oat, Wild plant response rating",wild oat; 500 g ai/ha,40
same,Rice plant response rating,rice [3],30
same,"Sedge, Umbrella plant response rating",[4],40
same,Ducksalad plant response rating,ducksalad,0
same,Barnyardgrass plant response rating,barnyardgrass [5],20
